Here are results for 61 compounds from the METLIN SMRT retention time set (Domingo-Almenara et al. 2019).

The series in a line: gradient 5% acetonitrile 3 min, to 50% in 2 min, to 85% in 15 min, held 3 min, 100 µL/min. The following applies: column: Zorbax Extend-C18 2.1 x 50 mm; eluents: water / acetonitrile, 0.1% formic acid. In a few lines:
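Retention times come from adduct peaks that were picked computationally and then checked by hand. The standards, pure and pooled in mixtures of ~100 molecules, were run on a Zorbax Extend-C18 column (2.1 × 50 mm, 1.8 μm) at 100 μL/min with water and acetonitrile, each with 0.1% formic acid. Detection was by quadrupole time-of-flight mass spectrometry in positive and negative ionization mode, with a dead volume of 40 μL and a dwell volume of 900 μL.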
Take `CCc1nc(-c2c(C)cc(C)nc2NC(=O)c2cccc(Br)c2)no1`: the RP-LC retention time was 898 s.

`Cc1cccc(-c2nc(C3CCN(S(=O)(=O)c4ccc(F)cc4)CC3)no2)c1` gave an RP-LC retention time of 1110 s.

Consider `CCOc1ccc(NC(=O)Cn2c(N3CCOCC3)nc(COC)cc2=O)cc1`, for which the RP-LC retention time was 967 s.

In the case of `O=C(COc1ccccc1)N1CCCCC1CCN1CCCCC1` (stereo unspecified), the RP-LC retention time came to 635 s.

In turn, `Cc1c2cnn(CC(=O)N3CCN(c4ccccn4)CC3)c(=O)c2c(C)n1Cc1ccccc1F` displayed an RP-LC retention time of 650 s.

Consider `O=C(Nc1ccc2c(c1)OCCO2)N1CCCCCC1CN1CCOCC1` (stereo unspecified), for which the RP-LC retention time is 611 s.

Consider `N#Cc1c(NC(=O)c2cccnc2)sc2c1CCCCC2`, for which the RP-LC retention time is 834 s.

`CCN(CC)c1ncc2c(n1)CCC(C(=O)Nc1ccc(C(=O)OC)cc1)C2` (stereo unspecified) displayed an RP-LC retention time of 736 s.

As to `O=C(NCC1CCS(=O)(=O)C1)c1cc(-c2ccccc2)on1` (stereo unspecified), the RP-LC retention time stood at 1010 s.

`Cc1ccc2nc(-c3ccc(N(C)C)cc3)c(Nc3ccc4c(c3)OCCO4)n2c1`: the RP-LC retention time was 726 s.

`O=C1NC2(CCN(C(=O)Nc3ccccc3F)CC2)N=C1c1cccc(Cl)c1` registered an RP-LC retention time of 839 s.

For the compound `COc1ccc(CNC(=O)C2CCCN(c3nccnc3Sc3ccc(C)cc3)C2)c(OC)c1` (stereo unspecified), the RP-LC retention time amounted to 792 s.

In the case of `O=C(C1=NN(Cc2ccc(F)cc2)c2ccccc2S1(=O)=O)N1CCCCC1`, the RP-LC retention time turned out to be 885 s.

The compound `Cc1ccc(C(=O)NCCn2c(C)cnc2C2CC2)s1` showed an RP-LC retention time of 584 s.

`CCc1cc(C(=O)Nc2cccc(OC)c2)nc2ccnn12` had an RP-LC retention time of 985 s.

As to `CNC(=O)N1CC(C)Oc2ccc(Cl)cc21` (stereo unspecified), the RP-LC retention time worked out at 806 s.

Take `O=C1CC(c2noc(-c3cc(F)ccc3Cl)n2)CN1c1ccc(F)cc1` (stereo unspecified): the RP-LC retention time was 1020 s.

In the case of `C=CCN(C(=O)C1CCCN(c2ncnc3c2nc2n3CCCCC2)C1)c1ccccc1` (stereo unspecified), the RP-LC retention time came to 864 s.

As for `CCN1CCN(CCNC(=O)CN2C(=O)CSc3cccn3-c3ccccc32)CC1`, the RP-LC retention time was found to be 600 s.

On to `O=C(NCCCc1ccccc1)C1CCCN(C(=O)Cc2cccc3ccccc23)C1` (stereo unspecified), for which the RP-LC retention time came to 944 s.

Compound `O=C(NCCc1cccs1)c1ccc(CN2CC(=O)N3CCCCC3C2=O)cc1` (stereo unspecified) returned an RP-LC retention time of 692 s.

Consider `CC(=O)N1CCc2cc(-c3ccc(C(=O)N4CCN(C(=O)c5ccco5)CC4)cc3)ccc21`, for which the RP-LC retention time came out at 662 s.

Turning to `O=C(Nc1cccc(Cl)c1)C1CCc2nc(N3CCOCC3)ncc2C1` (stereo unspecified), the RP-LC retention time worked out at 838 s.

`Cc1noc(COC2CCN(C(=O)CCc3c(C)noc3C)CC2)n1`: the RP-LC retention time came to 661 s.

`Cc1ccc(C)c(N(C)C(=O)C2CCCN(c3ncnc4c3nc3n4CCCCC3)C2)c1` (stereo unspecified) yielded an RP-LC retention time of 899 s.

Take `CCCc1ccc(S(=O)(=O)N2CCN(c3cnn4c(C)nnc4c3)CC2)cc1`: the RP-LC retention time is 805 s.

On to `CCCN1C(=O)c2ccccc2Sc2cc(-c3noc(CNC(=O)c4cccs4)n3)ccc21`, for which the RP-LC retention time stood at 999 s.

`CC(=O)N1CCC([C@@H]2CN(C(=O)c3ccc(Br)o3)C[C@H]2CO)CC1`: the RP-LC retention time turned out to be 622 s.

As to `COc1ccccc1-c1noc(C2CCCN2C(=O)NC2CCCCC2)n1` (stereo unspecified), the RP-LC retention time came out at 858 s.

Take `Cc1nc2cc(NC(=O)COc3ccccc3)ccc2s1`: the RP-LC retention time was determined as 771 s.

Regarding `CCOc1cccc(CNC(=O)c2c(C)sc3ccn(CC)c(=O)c23)c1`, the RP-LC retention time was determined as 856 s.

For the compound `CCOC(=O)C(C#N)C(=N)C1C(=O)OC2CCCCC21` (stereo unspecified), the RP-LC retention time amounted to 839 s.

`Cc1cc2oc(C(=O)Nc3ccccc3[N+](=O)[O-])c(C)c2cc1C` showed an RP-LC retention time of 1090 s.

`COc1cc(C)c(C)cc1S(=O)(=O)Nc1ccc2c(c1)C(=O)NCCO2`: the RP-LC retention time amounted to 678 s.

For the compound `CCCCOc1ccc(NC(=O)c2cc(=O)c3cc(CC)ccc3o2)c2cccnc12`, the RP-LC retention time worked out at 786 s.

`O=C(CCc1c(-c2ccc(F)cc2)nc2ccccn12)NCc1cccc(Br)c1`: the RP-LC retention time is 677 s.

`CCOc1cc(C(=O)N2CCCC(C)(C(=O)NCc3ccc(C)cc3)C2)cc(OCC)c1OCC` (stereo unspecified) gave an RP-LC retention time of 1010 s.

`O=C(NC1CCN(c2cc(-c3ccccc3)[nH]n2)C1)c1cc2ccccc2[nH]1` (stereo unspecified): the RP-LC retention time was found to be 739 s.

Turning to `O=C(c1ccc(S(=O)(=O)NCc2cccnc2)o1)N1CCN(c2ccccc2F)CC1`, the RP-LC retention time worked out at 624 s.

Consider `COc1ccc(-c2c(C(=O)N(C)Cc3ccco3)nc3ccccn23)cc1`, for which the RP-LC retention time was 698 s.

`Cc1cc(N2CCN(C(=O)c3nccc4ccccc34)CC2)nc2nncn12` returned an RP-LC retention time of 597 s.

Turning to `CC(C)c1nncn1C1CCN(C(=O)c2cc(-c3cccs3)[nH]n2)C1` (stereo unspecified), the RP-LC retention time is 617 s.

For `CCc1cccc(NC(=O)N2c3ccccc3CC2c2nc(CCOC)no2)c1` (stereo unspecified), the RP-LC retention time was 1060 s.

In turn, `CSc1cccc(NC(=O)Cc2csc(NC(=O)C3CCC(=O)N3)n2)c1` (stereo unspecified) came in with an RP-LC retention time of 627 s.

On to `CC(Oc1ccc(=O)n(-c2ccc(F)cc2)n1)C(=O)Nc1ccc(Cl)cc1` (stereo unspecified), for which the RP-LC retention time turned out to be 845 s.

`N#Cc1cccc(S(=O)(=O)N2CCc3nc[nH]c3C2)c1` had an RP-LC retention time of 592 s.

In turn, `Cc1ccc(N2CC(c3noc(-c4ccccc4C)n3)CC2=O)cc1` (stereo unspecified) displayed an RP-LC retention time of 1090 s.

`O=C(Nc1cccc(Br)c1)C1CCN(c2cc(N3CCCC3)ncn2)CC1` came in with an RP-LC retention time of 722 s.

Consider `CCc1nc2cc3c(cc2n1CC(=O)N1C(C)CCCC1C)OCCO3` (stereo unspecified), for which the RP-LC retention time was determined as 668 s.

`c1ccc(-c2n[nH]c(C3CCCCN3)n2)cc1` (stereo unspecified) displayed an RP-LC retention time of 574 s.

The compound `CCOc1ccc(NC(=O)c2cc(C)n3nccc3n2)cc1` returned an RP-LC retention time of 917 s.

As for `COc1cccc(N2CCn3c2nc2c3c(=O)n(CC(=O)O)c(=O)n2C)c1`, the RP-LC retention time is 702 s.

Compound `CCOC(=O)c1noc2ncnc(N3CCN(Cc4ccccc4)CC3)c12` displayed an RP-LC retention time of 643 s.

Compound `Cc1ccc(-c2nccn3cc(C(=O)N4CCOCC4)nc23)cc1` returned an RP-LC retention time of 748 s.

On to `CCn1c(C(=O)N2CCCC(C(=O)N3CCN(c4ccccc4)CC3)C2)cc2sccc21` (stereo unspecified), for which the RP-LC retention time stood at 970 s.

Compound `O=C([C@@H]1CC(F)(F)CN1C(=O)CCn1c(=O)oc2ccccc21)N1CCCC1` yielded an RP-LC retention time of 718 s.

`CCN1C(=O)COc2ccc(-c3csc(NC(=O)c4cccs4)n3)cc21` came in with an RP-LC retention time of 940 s.

`CCCn1cc(S(=O)(=O)Nc2cccc(Cl)c2)c2cccnc21` gave an RP-LC retention time of 942 s.

`Cc1noc(CNC(=O)Cn2cnc3ccccc3c2=O)n1` showed an RP-LC retention time of 576 s.

For the compound `COCc1cc(=O)n(CC(=O)Nc2ccc(Cl)cc2)c(N)n1`, the RP-LC retention time was found to be 641 s.

Compound `Cc1cc2nn(CC(=O)N(C)C3CCCCC3)c(=O)n2c(Nc2ccccc2C)n1` displayed an RP-LC retention time of 1110 s.
